The text below walks through data of patent US20240182445A1 (ONO PHARMACEUTICAL CO., LTD., priority 2019, published 2024).

Each structure is given as a SMILES string.

One test deals with T1, human TREK-1 (Homo sapiens, UniProt O95069).
T1 construct: expressed in transfected cells
T1 sequence (O95069 1-426): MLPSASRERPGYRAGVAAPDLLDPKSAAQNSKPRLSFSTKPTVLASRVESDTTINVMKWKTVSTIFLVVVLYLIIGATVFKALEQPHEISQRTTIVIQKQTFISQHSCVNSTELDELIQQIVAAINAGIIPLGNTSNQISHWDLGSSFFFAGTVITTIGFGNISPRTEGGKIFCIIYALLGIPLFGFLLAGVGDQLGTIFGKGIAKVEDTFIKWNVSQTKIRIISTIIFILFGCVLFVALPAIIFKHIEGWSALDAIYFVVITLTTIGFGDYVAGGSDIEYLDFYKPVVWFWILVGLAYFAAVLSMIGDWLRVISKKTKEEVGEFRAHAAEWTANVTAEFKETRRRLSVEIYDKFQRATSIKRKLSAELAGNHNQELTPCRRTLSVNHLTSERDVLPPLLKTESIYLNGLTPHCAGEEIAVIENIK
The experiment in a line: TREK-1 Thallium (Tl+) flux assay, Method 1. The test is classed as cell-based. The conditions noted are these: TREK-1 Thallium (Tl+) flux assay, Method 1. In outline:
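Readout: Thallos fluorescence ratio, taken 25 s post-thallium relative to the pre-thallium baseline average, then converted to % inhibition. Cells were CHO-K1 stably expressing human TREK-1, dye-loaded and exposed to test compound (vehicle 0.3% DMSO) for 10 min prior to thallium stimulation.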
Broadly, the IC50 is the concentration needed to halve the response being measured. Lower therefore signals higher potency. As to `Cc1cc(OCc2ccccc2)ccc1NC(=O)c1c(Cl)cnn1C1CCN(C(=O)C2CC2)CC1` [Compound 400, N-(4-(benzyloxy)-2-methylphenyl)-4-chloro-1-(1-(cyclopropanecarbonyl)piperidin-4-yl)-1H-pyrazole-5-carboxamide], the IC50 came to 1780 nM.

As for `CC(=O)N1CCC(n2ncc(Cl)c2C(=O)Nc2ncc(-c3cc(F)c(Cl)c(F)c3)cc2C)CC1` [Compound 426, 1-(1-acetylpiperidin-4-yl)-4-chloro-N-(5-(4-chloro-3,5-difluorophenyl)-3-methylpyridin-2-yl)-1H-pyrazole-5-carboxamide], half-maximal inhibition (IC50) was put at 5120 nM.

Still in this test, the particulars now being: TREK-1 Thallium (Tl+) flux assay; no *^12 (Method 2) mark on these rows.
As to `Cc1cc(C#Cc2cccc(F)c2)cnc1NC(=O)c1c(Cl)cnn1C[C@H]1COCCO1` [Compound 286, (S)-1-((1,4-dioxan-2-yl)methyl)-4-chloro-N-(5-((3-fluorophenyl)ethynyl)-3-methylpyridin-2-yl)-1H-pyrazole-5-carboxamide], half-maximal inhibition (IC50) was put at 500 nM.

The compound `Cc1cc(C#Cc2ccccc2)cnc1NC(=O)c1c(Cl)cnn1C1CCN(C(=O)C(C)(C)C)CC1` [Compound 220, 4-chloro-N-(3-methyl-5-(phenylethynyl)pyridin-2-yl)-1-(1-pivaloylpiperidin-4-yl)-1H-pyrazole-5-carboxamide] returned an IC50 of 340 nM.

The compound `Cc1cc(C#Cc2ccccc2)cnc1NC(=O)c1c(Cl)cnn1CC1(F)CCN(C(=O)C(C)C)CC1` [Compound 236, 4-chloro-1-((4-fluoro-1-isobutyrylpiperidin-4-yl)methyl)-N-(3-methyl-5-(phenylethynyl)pyridin-2-yl)-1H-pyrazole-5-carboxamide] yielded an IC50 of 360 nM.

Take `Cn1ncc2cc(-n3ncc(Cl)c3C(=O)Nc3ncc(C#Cc4ccccc4)cc3F)ccc21` [Compound 270, 4-chloro-N-(3-fluoro-5-(phenylethynyl)pyridin-2-yl)-1-(1-methyl-1H-indazole-5-yl)-1H-pyrazole-5-carboxamide]: the 50% inhibitory concentration (IC50) came to 460 nM.

`CC(C)(C)OC(=O)N1CC2(CC(n3ncc(Cl)c3C(=O)Nc3ncc(C#Cc4ccccc4)cc3F)C2)C1` [Compound 334, tert-butyl 6-(4-chloro-5-((3-fluoro-5-(phenylethynyl)pyridin-2-yl)carbamoyl)-1H-pyrazol-1-yl)-2-azaspiro[3.3]heptane-2-carboxylate] showed an IC50 of 670 nM.

The compound `CC(C)(C)OC(=O)N1CCC2(CC1)CC(n1ncc(Cl)c1C(=O)Nc1ncc(C#Cc3ccccc3)cc1F)C2` [Compound 346, tert-butyl 2-(4-chloro-5-((3-fluoro-5-(phenylethynyl)pyridin-2-yl)carbamoyl)-1H-pyrazol-1-yl)-7-azaspiro[3.5]nonane-7-carboxylate] displayed an IC50 of 770 nM.

`CC(=O)N1CCC(n2ncc(Cl)c2C(=O)Nc2ncc(C#Cc3ccc(F)cc3)cc2F)[C@H](F)C1` (stereo in doubt) [Compound 213, 1-((3R,4R)-1-acetyl-3-fluoropiperidin-4-yl)-4-chloro-N-(3-fluoro-5-((4-fluorophenyl)ethynyl)pyridin-2-yl)-1H-pyrazole-5-carboxamide]: it took 330 nM to reach half-maximal inhibition (IC50).

Compound `Cc1cc(C#Cc2ccccc2)cnc1NC(=O)c1c(Cl)cnn1CC1CC1` [Compound 278, 4-chloro-1-(cyclopropylmethyl)-N-(3-methyl-5-(phenylethynyl)pyridin-2-yl)-1H-pyrazole-5-carboxamide] showed a 50% inhibitory concentration (IC50) of 490 nM.

Staying with this test, now noted: TREK-1 Thallium (Tl+) flux assay; values without footnote *12 are Method 1.
Compound `CC(C)C(=O)N[C@H]1CC[C@@H](n2ncc(Cl)c2C(=O)Nc2ncc(C#Cc3ccc(F)cc3)cc2F)CC1` [Compound 45, 4-chloro-N-(3-fluoro-5-((4-fluorophenyl)ethynyl)pyridin-2-yl)-1-(cis-4-isobutyramidocyclohexyl)-1H-pyrazole-5-carboxamide] registered an IC50 of 130 nM.

For the compound `CCNC(=O)N1C[C@H]2C[C@H](n3ncc(Cl)c3C(=O)Nc3ncc(C#Cc4cccs4)cc3C)C[C@H]2C1` [Compound 74, (3aR,5s,6aS)-5-[4-chloro-5-({3-methyl-5-[(thiophen-2-yl)ethynyl]pyridin-2-yl}carbamoyl)-1H-pyrazol-1-yl]-N-ethylhexahydrocyclopenta[c]pyrrole-2(1H)-carboxamide], the concentration for half-maximal inhibition (IC50) is 160 nM.

`CC(C)C(=O)N1CCC(CCn2ncc(Cl)c2C(=O)Nc2ncc(C#Cc3ccccc3)cc2F)CC1` [Compound 144, 4-chloro-N-(3-fluoro-5-(phenylethynyl)pyridin-2-yl)-1-(2-(1-isobutyrylpiperidin-4-yl)ethyl)-1H-pyrazole-5-carboxamide] yielded an IC50 of 230 nM.

In turn, `Cc1cc(C#Cc2ccccc2)cnc1NC(=O)c1c(Cl)cnn1C1CCN(C(=O)C2CC2)CC1` [Compound 149, 4-chloro-1-(1-(cyclopropanecarbonyl)piperidin-4-yl)-N-(3-methyl-5-(phenylethynyl)pyridin-2-yl)-1H-pyrazole-5-carboxamide] gave an IC50 of 240 nM.

`CC(=O)N1CCCC(n2ncc(Cl)c2C(=O)Nc2ncc(C#Cc3ccccc3)cc2C)CC1` (stereo not drawn) [Compound 131, 1-(1-acetylazepan-4-yl)-4-chloro-N-(3-methyl-5-(phenylethynyl)pyridin-2-yl)-1H-pyrazole-5-carboxamide] yielded an IC50 of 220 nM.

In turn, `CCNC(=O)N1CCC(n2ncc(Cl)c2C(=O)Nc2ncc(C#Cc3ccccc3)cc2C)CC1` [Compound 90, 4-(4-chloro-5-((3-methyl-5-(phenylethynyl)pyridin-2-yl)carbamoyl)-1H-pyrazol-1-yl)-N-ethylpiperidine-1-carboxamide] gave an IC50 of 180 nM.

In the case of `CC(=O)N1CCC(Cn2ncc(Cl)c2C(=O)Nc2ncc(C#Cc3ccccc3)cc2F)CC1` [Compound 42, 1-((1-acetylpiperidin-4-yl)methyl)-4-chloro-N-(3-fluoro-5-(phenylethynyl)pyridin-2-yl)-1H-pyrazole-5-carboxamide], the IC50 came out at 130 nM.

`Cc1cc(C#Cc2ccccc2)cnc1NC(=O)c1c(Cl)cnn1C1CCN(C(=O)CC(F)(F)F)CC1` [Compound 171, 4-chloro-N-(3-methyl-5-(phenylethynyl)pyridin-2-yl)-1-(1-(3,3,3-trifluoropropanoyl)piperidin-4-yl)-1H-pyrazole-5-carboxamide] registered an IC50 of 270 nM.

On to `Cc1cc(C#Cc2ccc(F)cc2)cnc1NC(=O)c1c(Cl)cnn1CCN1CCN(C(=O)C2CC2)CC1` [Compound 96, 4-chloro-1-(2-(4-(cyclopropanecarbonyl)piperazin-1-yl)ethyl)-N-(5-((4-fluorophenyl)ethynyl)-3-methylpyridin-2-yl)-1H-pyrazole-5-carboxamide], for which the IC50 worked out at 180 nM.

Compound `CC(=O)N1CC(Cn2ncc(Cl)c2C(=O)Nc2ncc(C#Cc3ccccc3)cc2C)C1` [Compound 135, 1-((1-acetylazetidin-3-yl)methyl)-4-chloro-N-(3-methyl-5-(phenylethynyl)pyridin-2-yl)-1H-pyrazole-5-carboxamide] showed an IC50 of 220 nM.

`CC(C)C(=O)N[C@H]1C[C@@H](n2ncc(Cl)c2C(=O)Nc2ncc(C#Cc3ccccc3)cc2F)C1` [Compound 124, 4-chloro-N-(3-fluoro-5-(phenylethynyl)pyridin-2-yl)-1-(cis-3-isobutyramidocyclobutyl)-1H-pyrazole-5-carboxamide]: 210 nM corresponded to half-maximal inhibition (IC50).

`CC(C)C(=O)N1CC[C@H](Cn2ncc(Cl)c2C(=O)Nc2ncc(C#Cc3ccccc3)cc2F)[C@H](F)C1` [Compound 58, 4-chloro-1-(((3S,4R)-3-fluoro-1-isobutyrylpiperidin-4-yl)methyl)-N-(3-fluoro-5-(phenylethynyl)pyridin-2-yl)-1H-pyrazole-5-carboxamide] came in with an IC50 of 140 nM.

In turn, `CC(=O)N1CCCC(n2ncc(Cl)c2C(=O)Nc2ncc(C#Cc3ccccc3)cc2F)CC1` (stereo not drawn) [Compound 26] showed a half-inhibitory concentration (IC50) of 90 nM.

`Cc1cc(C#Cc2ccccc2)cnc1NC(=O)c1c(Cl)cnn1C[C@H]1CCN(C(=O)C(C)C)C[C@H]1F` [Compound 108, 4-chloro-1-(((3S,4R)-3-fluoro-1-isobutyrylpiperidin-4-yl)methyl)-N-(3-methyl-5-(phenylethynyl)pyridin-2-yl)-1H-pyrazole-5-carboxamide] yielded an IC50 of 190 nM.

`Cc1cc(C#Cc2ccccc2)cc(F)c1NC(=O)c1c(Cl)cnn1CCCC#N` [Compound 185, 4-chloro-1-(3-cyanopropyl)-N-(2-fluoro-6-methyl-4-(phenylethynyl)phenyl)-1H-pyrazole-5-carboxamide] yielded an IC50 of 290 nM.

In the case of `Cc1cc(C#Cc2ccc(F)cc2)cnc1NC(=O)c1c(Cl)cnn1[C@H]1CC[C@@H](NC(=O)C(C)C)CC1` [Compound 125, 4-chloro-N-(5-((4-fluorophenyl)ethynyl)-3-methylpyridin-2-yl)-1-(cis-4-isobutyramidocyclohexyl)-1H-pyrazole-5-carboxamide], it took 210 nM to reach half-maximal inhibition (IC50).

Staying with this test, now noted: read-out: Tl^+ Assay % inhibition at 30 uM (Minus value indicates activation of TREK-1); at 30 uM; CHO-K1 cells stably expressing human TREK-1; minus = activation.
For orientation: inhibition means the relative decrease from the control value, in per cent. `CC(=O)N1CCC(CCn2cc(Cl)c(C(=O)Nc3ncc(C#Cc4cccs4)cc3F)n2)CC1` [Compound 447, 1-(2-(1-acetylpiperidin-4-yl)ethyl)-4-chloro-N-(3-fluoro-5-(thiophen-2-ylethynyl)pyridin-2-yl)-1H-pyrazole-3-carboxamide]: the inhibition at 30 µM is -107%.
